From US20100267561A1, “HERBICIDAL PYRIDAZINONE DERIVATIVES” (priority 2007, published 2010)

Experiments:
Assay type in all cases: in vivo
[1] = system: pigweed (Amaranthus retroflexus); assay: Test A pre-/postemergence plant response
In short: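 Seeds were planted in blended loam soil and sand, then treated preemergence by directed soil spray. At that time, emerged plants (one- to two-leaf, 2–10 cm) received postemergence applications of the same surfactant-containing formulation. Injury was assessed visually on a 0–100 scale after approximately 10 days.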

[2] = system: Italian ryegrass (Lolium multiflorum); assay: Test C pre-/postemergence plant response; conditions: Preemergence
Text: (§1) Seeds of plant species selected from annual bluegrass (Poa annua), blackgrass (Alopecurus myosuroides), canola (Brassica rapa), downy bromegrass (Bromus tectorum), green foxtail (Setaria viridis), Italian ryegrass (Lolium multiflorum), canarygrass (Phalaris minor), pigweed (Amaranthus retroflexus), spring barley (Hordeum vulgare), spring wheat (Triticum aestivum), wild mustard (Sinapis arvensis), wild oat (Avena fatua), windgrass (Apera spica-venti), winter barley (Hordeum vulgare), and winter wheat (Triticum aestivum) were planted and treated preemergence with test chemicals formulated in a non-phytotoxic solvent mixture which included a surfactant. At the same time, plants selected from these crop and weed species were treated with postemergence applications of some of the test chemicals formulated in the same manner. Plants ranged in height from 2 to 18 cm (1- to 4-leaf stage) for postemergence treatments.
(§2) Treated plants and controls were maintained in a controlled growth environment for 15 to 25 days after which time all species were compared to controls and visually evaluated. Plant response ratings, summarized in Table C, are based on a scale of 0 to 100 where 0 is no effect and 100 is complete control. A dash (-) response means no test result.

[3] = system: annual bluegrass (Poa annua); assay: Test C pre-/postemergence plant response; conditions: Preemergence
Text: as §1, §2

[4] = system: blackgrass (Alopecurus myosuroides); assay: Test C pre-/postemergence plant response; conditions: Preemergence
Text: as §1, §2

[5] = system: canarygrass (Phalaris minor); assay: Test C pre-/postemergence plant response; conditions: Preemergence
Text: as §1, §2

[6] = system: downy bromegrass (Bromus tectorum); assay: Test C pre-/postemergence plant response; conditions: Preemergence
Text: as §1, §2

[7] = system: green foxtail (Setaria viridis); assay: Test C pre-/postemergence plant response; conditions: Preemergence
Text: as §1, §2

[8] = system: pigweed (Amaranthus retroflexus); assay: Test C pre-/postemergence plant response; conditions: Preemergence
Text: as §1, §2

[9] = system: spring barley (Hordeum vulgare); assay: Test C pre-/postemergence plant response; conditions: Preemergence
Text: as §1, §2

[10] = system: spring wheat (Triticum aestivum); assay: Test C pre-/postemergence plant response; conditions: Preemergence
Text: as §1, §2

[11] = system: wild mustard (Sinapis arvensis); assay: Test C pre-/postemergence plant response; conditions: Preemergence
Text: as §1, §2

wild oat (Avena fatua) = assay: Test C pre-/postemergence plant response; conditions: Preemergence
Text: as §1, §2

[12] = system: windgrass (Apera spica-venti); assay: Test C pre-/postemergence plant response; conditions: Preemergence
Text: as §1, §2

[13] = system: winter barley (Hordeum vulgare); assay: Test C pre-/postemergence plant response; conditions: Preemergence
Text: as §1, §2

[14] = system: winter wheat (Triticum aestivum); assay: Test C pre-/postemergence plant response; conditions: Preemergence
Text: as §1, §2

[15] = 8 g ai/ha, scale 0 to 100 (0 no effect, 100 complete control)
[16] = 16 g ai/ha, scale 0 to 100 (0 no effect, 100 complete control)
[17] = 31 g ai/ha, scale 0 to 100 (0 no effect, 100 complete control)
[18] = 62 g ai/ha, scale 0 to 100, 0 no effect, 100 complete control

## Cc1cc(-c2ccc(Cl)cc2)nn1-c1c(OS(=O)(=O)c2cccc3ccccc23)cnn(C)c1=O [Compound 47]
[1]; Postemergence, 31 g ai/ha, 0 to 100 scale, 0 no effect, 100 complete control
  Plant response rating, Pigweed: 0
[1]; Postemergence, 125 g ai/ha, 0 to 100 scale, 0 no effect, 100 complete control
  Plant response rating, Pigweed: 0
[1]; Preemergence, 31 g ai/ha, 0 to 100 scale, 0 is no effect, 100 is complete control
  Plant response rating, Pigweed: 0
[1]; Preemergence, 125 g ai/ha, 0 to 100 scale (0 no effect, 100 complete control)
  Plant response rating, Pigweed: 0
[2]; [15]
  Plant response rating, Ryegrass, Italian: 0
[2]; [16]
  Plant response rating, Ryegrass, Italian: 20
[2]; [17]
  Plant response rating, Ryegrass, Italian: 80
[2]; [18]
  Plant response rating, Ryegrass, Italian: 100
[3]; [15]
  Plant response rating, Bluegrass: 0
[3]; [16]
  Plant response rating, Bluegrass: 20
[3]; [17]
  Plant response rating, Bluegrass: 50
[3]; [18]
  Plant response rating, Bluegrass: 50
[4]; [15]
  Plant response rating, Blackgrass: 0
[4]; [16]
  Plant response rating, Blackgrass: 0
[4]; [17]
  Plant response rating, Blackgrass: 90
[4]; [18]
  Plant response rating, Blackgrass: 100
[5]; [15]
  Plant response rating, Canarygrass: 0
[5]; [16]
  Plant response rating, Canarygrass: 0
[5]; [17]
  Plant response rating, Canarygrass: 50
[5]; [18]
  Plant response rating, Canarygrass: 90
[6]; [15]
  Plant response rating, Bromegrass, Downy: 0
[6]; [16]
  Plant response rating, Bromegrass, Downy: 15
[6]; [17]
  Plant response rating, Bromegrass, Downy: 35
[6]; [18]
  Plant response rating, Bromegrass, Downy: 35
[7]; [15]
  Plant response rating, Foxtail, Green: 0
[7]; [16]
  Plant response rating, Foxtail, Green: 15
[7]; [17]
  Plant response rating, Foxtail, Green: 80
[7]; [18]
  Plant response rating, Foxtail, Green: 100
[8]; [15]
  Plant response rating, Pigweed: 0
[8]; [16]
  Plant response rating, Pigweed: 0
[8]; [17]
  Plant response rating, Pigweed: 0
[8]; [18]
  Plant response rating, Pigweed: 0
[9]; [15]
  Plant response rating, Barley, Spring: 10
[9]; [16]
  Plant response rating, Barley, Spring: 20
[9]; [17]
  Plant response rating, Barley, Spring: 35
[9]; [18]
  Plant response rating, Barley, Spring: 75
[10]; [15]
  Plant response rating, Wheat, Spring: 0
[10]; [16]
  Plant response rating, Wheat, Spring: 15
[10]; [17]
  Plant response rating, Wheat, Spring: 25
[10]; [18]
  Plant response rating, Wheat, Spring: 65
[11]; [15]
  Plant response rating, Mustard, Wild: 0
[11]; [16]
  Plant response rating, Mustard, Wild: 0
[11]; [17]
  Plant response rating, Mustard, Wild: 0
[11]; [18]
  Plant response rating, Mustard, Wild: 0
Wild oat (Avena fatua); [15]
  Plant response rating, Oat, Wild: 0
Wild oat (Avena fatua); [16]
  Plant response rating, Oat, Wild: 0
Wild oat (Avena fatua); [17]
  Plant response rating, Oat, Wild: 75
Wild oat (Avena fatua); [18]
  Plant response rating, Oat, Wild: 80
[12]; [15]
  Plant response rating, Windgrass: 0
[12]; [16]
  Plant response rating, Windgrass: 0
[12]; [17]
  Plant response rating, Windgrass: 30
[12]; [18]
  Plant response rating, Windgrass: 65
[13]; [15]
  Plant response rating, Barley, Winter: 0
[13]; [16]
  Plant response rating, Barley, Winter: 20
[13]; [17]
  Plant response rating, Barley, Winter: 40
[13]; [18]
  Plant response rating, Barley, Winter: 40
[14]; [15]
  Plant response rating, Wheat, Winter: 0
[14]; [16]
  Plant response rating, Wheat, Winter: 20
[14]; [17]
  Plant response rating, Wheat, Winter: 35
[14]; [18]
  Plant response rating, Wheat, Winter: 65
